Experimental data from ChEMBL document CHEMBL4428102, “Discovery of an Orally Bioavailable Gonadotropin-Releasing Hormone Receptor Antagonist” (J Med Chem, 2016).

Experiments:
[1] = molecular target: T1, Gonadotropin-releasing hormone receptor (Homo sapiens, UniProt P30968); assay: Antagonist activity against human GnRH receptor expressed in HEK293 cells co-transfected with pGL4-NFAT promoter AP1-luc assessed as inhibition of 20 nM GnRH-induced NFAT activation pre-incubated for 1 hr before GnRH stimulation and measured after 6 hrs by luciferase reporter gene assay; format: cell-based
T1 sequence (P30968 whole entry): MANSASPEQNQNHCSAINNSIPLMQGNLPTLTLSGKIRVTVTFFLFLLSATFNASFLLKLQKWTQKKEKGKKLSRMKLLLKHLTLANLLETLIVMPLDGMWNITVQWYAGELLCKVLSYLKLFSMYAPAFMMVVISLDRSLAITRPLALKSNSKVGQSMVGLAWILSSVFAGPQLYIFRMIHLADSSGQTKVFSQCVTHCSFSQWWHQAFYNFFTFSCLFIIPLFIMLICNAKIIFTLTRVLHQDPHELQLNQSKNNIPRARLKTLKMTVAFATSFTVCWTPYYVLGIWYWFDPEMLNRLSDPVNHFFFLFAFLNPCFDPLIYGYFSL

[2] = molecular target: T1, Gonadotropin-releasing hormone receptor; assay: Displacement of [125I]D-Trp6-LHRH from human GnRH receptor expressed in CHO-K1 cell membranes incubated for 1 hr by competitive binding assay

IC50 [1] [nM] | IC50 [2] [nM] | SMILES
> 1000 | 2.76 | Cc1c(N2CCN(Cc3ccco3)CC2)c(=O)n(C[C@H](N)c2ccccc2)c(=O)n1Cc1c(F)cccc1C(F)(F)F
62 |  | Cc1c(N2CCN(Cc3ccc(C(F)(F)F)s3)CC2)c(=O)n(C[C@H](N)c2ccccc2)c(=O)n1Cc1c(F)cccc1C(F)(F)F
1090 | 28.1 | Cc1c(N2CCN(Cc3ccc(=O)[nH]c3)CC2)c(=O)n(C[C@H](N)c2ccccc2)c(=O)n1Cc1c(F)cccc1C(F)(F)F
> 300 |  | CCNC(=O)c1cccc(CN2CCN(c3c(C)n(Cc4c(F)cccc4C(F)(F)F)c(=O)n(C[C@H](N)c4ccccc4)c3=O)CC2)c1
> 1000 | > 100 | Cc1cc(CN2CCN(c3c(C)n(Cc4c(F)cccc4C(F)(F)F)c(=O)n(C[C@H](N)c4ccccc4)c3=O)CC2)c(C(F)(F)F)o1
> 300 |  | Cc1c(N2CCN(Cc3cccnc3C(F)(F)F)CC2)c(=O)n(C[C@H](N)c2ccccc2)c(=O)n1Cc1c(F)cccc1C(F)(F)F
16.5 | 0.16 | CC(=O)c1cccc(CN2CCN(c3c(C)n(Cc4c(F)cccc4C(F)(F)F)c(=O)n(C[C@H](N)c4ccccc4)c3=O)CC2)c1
213 | 0.41 | Cc1c(N2CCN(Cc3cccc(C#N)c3)CC2)c(=O)n(C[C@H](N)c2ccccc2)c(=O)n1Cc1c(F)cccc1C(F)(F)F
51.2 |  | Cc1c(N2CCN(Cc3cccc([S+](C)[O-])c3)CC2)c(=O)n(C[C@H](N)c2ccccc2)c(=O)n1Cc1c(F)cccc1C(F)(F)F (some centres not stated)
53 |  | Cc1c(N2CCN(Cc3cccc(-c4ncco4)c3)CC2)c(=O)n(C[C@H](N)c2ccccc2)c(=O)n1Cc1c(F)cccc1C(F)(F)F
226 |  | Cc1c(N2CCN(Cc3ccnc(C(F)(F)F)c3)CC2)c(=O)n(C[C@H](N)c2ccccc2)c(=O)n1Cc1c(F)cccc1C(F)(F)F
> 10000 | 24.3 | COC(=O)c1ccccc1CN1CCN(c2c(C)n(Cc3c(F)cccc3C(F)(F)F)c(=O)n(C[C@H](N)c3ccccc3)c2=O)CC1
543 | 5.11 | Cc1ncccc1CN1CCN(c2c(C)n(Cc3c(F)cccc3C(F)(F)F)c(=O)n(C[C@H](N)c3ccccc3)c2=O)CC1
108 |  | Cc1c(N2CCN(Cc3cccc(F)c3C#N)CC2)c(=O)n(C[C@H](N)c2ccccc2)c(=O)n1Cc1c(F)cccc1C(F)(F)F
351 | 0.32 | Cc1c(N2CCN(Cc3ccccc3C#N)CC2)c(=O)n(C[C@H](N)c2ccccc2)c(=O)n1Cc1c(F)cccc1C(F)(F)F
340 | 1 | Cc1c(N2CCN(Cc3ccccc3F)CC2)c(=O)n(C[C@H](N)c2ccccc2)c(=O)n1Cc1c(F)cccc1C(F)(F)F
1180 | 7.18 | Cc1cncc(CN2CCN(c3c(C)n(Cc4c(F)cccc4C(F)(F)F)c(=O)n(C[C@H](N)c4ccccc4)c3=O)CC2)c1
103 | 0.17 | Cc1c(N2CCN(Cc3ccc(C#N)o3)CC2)c(=O)n(C[C@H](N)c2ccccc2)c(=O)n1Cc1c(F)cccc1C(F)(F)F
1690 | 14.2 | Cc1ccc(CN2CCN(c3c(C)n(Cc4c(F)cccc4C(F)(F)F)c(=O)n(C[C@H](N)c4ccccc4)c3=O)CC2)cn1
193 | 1.07 | Cc1c(N2CCN(Cc3cccnc3F)CC2)c(=O)n(C[C@H](N)c2ccccc2)c(=O)n1Cc1c(F)cccc1C(F)(F)F

IC50 [1] [nM] | IC50 [2] [nM] | SMILES
> 300 |  | Cc1c(N2CCN(Cc3cccc(=O)o3)CC2)c(=O)n(C[C@H](N)c2ccccc2)c(=O)n1Cc1c(F)cccc1C(F)(F)F
170 |  | CNC(=O)c1cccc(CN2CCN(c3c(C)n(Cc4c(F)cccc4C(F)(F)F)c(=O)n(C[C@H](N)c4ccccc4)c3=O)CC2)c1
10200 | 18.2 | Cc1c(N2CCN(Cc3cccc4ccsc34)CC2)c(=O)n(C[C@H](N)c2ccccc2)c(=O)n1Cc1c(F)cccc1C(F)(F)F
64 | 0.31 | COC(=O)c1ccc(CN2CCN(c3c(C)n(Cc4c(F)cccc4C(F)(F)F)c(=O)n(C[C@H](N)c4ccccc4)c3=O)CC2)o1
401 | 2.9 | Cc1c(N2CCN(Cc3cccc([N+](=O)[O-])c3)CC2)c(=O)n(C[C@H](N)c2ccccc2)c(=O)n1Cc1c(F)cccc1F
1510 | 2 | Cc1c(N2CCN(Cc3cncc(F)c3)CC2)c(=O)n(C[C@H](N)c2ccccc2)c(=O)n1Cc1c(F)cccc1C(F)(F)F
4900 | 48 | Cc1c(N2CCN(Cc3nc4ccccc4s3)CC2)c(=O)n(C[C@H](N)c2ccccc2)c(=O)n1Cc1c(F)cccc1C(F)(F)F
> 300 |  | Cc1c(N2CCN(Cc3ccncn3)CC2)c(=O)n(C[C@H](N)c2ccccc2)c(=O)n1Cc1c(F)cccc1C(F)(F)F
> 300 |  | Cc1c(N2CCN(Cc3cccc4cnoc34)CC2)c(=O)n(C[C@H](N)c2ccccc2)c(=O)n1Cc1c(F)cccc1C(F)(F)F
250 | 1 | Cc1c(N2CCN(Cc3cccc(OC(F)(F)F)c3)CC2)c(=O)n(C[C@H](N)c2ccccc2)c(=O)n1Cc1c(F)cccc1C(F)(F)F
> 300 |  | Cc1c(N2CCN(Cc3ccc(C(N)=O)o3)CC2)c(=O)n(C[C@H](N)c2ccccc2)c(=O)n1Cc1c(F)cccc1C(F)(F)F
266 | 0.39 | Cc1c(N2CCN(Cc3cccc(F)c3F)CC2)c(=O)n(C[C@H](N)c2ccccc2)c(=O)n1Cc1c(F)cccc1C(F)(F)F
178 | 0.39 | Cc1c(N2CCN(Cc3ccc(Cl)o3)CC2)c(=O)n(C[C@H](N)c2ccccc2)c(=O)n1Cc1c(F)cccc1C(F)(F)F
2050 | 20 | Cc1c(N2CCN(Cc3cnccn3)CC2)c(=O)n(C[C@H](N)c2ccccc2)c(=O)n1Cc1c(F)cccc1C(F)(F)F
> 1000 | 1.27 | Cc1c(N2CCN(Cc3cccs3)CC2)c(=O)n(C[C@H](N)c2ccccc2)c(=O)n1Cc1c(F)cccc1C(F)(F)F
> 300 |  | Cc1c(N2CCN(Cc3ccc(C(C)(C)C)o3)CC2)c(=O)n(C[C@H](N)c2ccccc2)c(=O)n1Cc1c(F)cccc1C(F)(F)F
2130 | 35.6 | Cc1c(N2CCN(Cc3cscn3)CC2)c(=O)n(C[C@H](N)c2ccccc2)c(=O)n1Cc1c(F)cccc1C(F)(F)F
214 | 0.38 | Cc1c(N2CCN(Cc3cccc(S(C)(=O)=O)c3)CC2)c(=O)n(C[C@H](N)c2ccccc2)c(=O)n1Cc1c(F)cccc1C(F)(F)F
526 | 2.57 | Cc1c(N2CCN(Cc3cccnc3Cl)CC2)c(=O)n(C[C@H](N)c2ccccc2)c(=O)n1Cc1c(F)cccc1C(F)(F)F
115 |  | Cc1c(N2CCN(Cc3cccc([N+](=O)[O-])c3F)CC2)c(=O)n(C[C@H](N)c2ccccc2)c(=O)n1Cc1c(F)cccc1C(F)(F)F

IC50 [1] [nM] | IC50 [2] [nM] | SMILES
321 | 1.7 | Cc1c(N2CCN(Cc3cccc(F)c3)CC2)c(=O)n(C[C@H](N)c2ccccc2)c(=O)n1Cc1c(F)cccc1C(F)(F)F
23.3 | 0.39 | COC(=O)c1cccc(CN2CCN(c3c(C)n(Cc4c(F)cccc4C(F)(F)F)c(=O)n(C[C@H](N)c4ccccc4)c3=O)CC2)c1
217 |  | Cc1c(N2CCN(Cc3cccc(C(F)(F)F)n3)CC2)c(=O)n(C[C@H](N)c2ccccc2)c(=O)n1Cc1c(F)cccc1C(F)(F)F
1660 | 17.7 | Cc1c(N2CCN(Cc3nccs3)CC2)c(=O)n(C[C@H](N)c2ccccc2)c(=O)n1Cc1c(F)cccc1C(F)(F)F
> 1000 | 6.59 | Cc1c(N2CCN(Cc3ccoc3)CC2)c(=O)n(C[C@H](N)c2ccccc2)c(=O)n1Cc1c(F)cccc1C(F)(F)F
> 300 |  | Cc1ccc(CN2CCN(c3c(C)n(Cc4c(F)cccc4C(F)(F)F)c(=O)n(C[C@H](N)c4ccccc4)c3=O)CC2)o1
554 | 3.77 | Cc1c(N2CCN(Cc3ccc(Cl)nc3)CC2)c(=O)n(C[C@H](N)c2ccccc2)c(=O)n1Cc1c(F)cccc1C(F)(F)F
61 |  | Cc1c(N2CCN(Cc3cccc(C#N)c3F)CC2)c(=O)n(C[C@H](N)c2ccccc2)c(=O)n1Cc1c(F)cccc1C(F)(F)F
290 | 2 | Cc1c(N2CCN(Cc3cccnc3)CC2)c(=O)n(C[C@H](N)c2ccccc2)c(=O)n1Cc1c(F)cccc1C(F)(F)F
42 |  | Cc1c(N2CCN(Cc3cccc(C(N)=O)c3F)CC2)c(=O)n(C[C@H](N)c2ccccc2)c(=O)n1Cc1c(F)cccc1C(F)(F)F
> 300 |  | Cc1c(N2CCN(Cc3cc(C(F)(F)F)co3)CC2)c(=O)n(C[C@H](N)c2ccccc2)c(=O)n1Cc1c(F)cccc1C(F)(F)F
326 | 1.16 | Cc1c(N2CCN(Cc3ccc(C#N)cc3)CC2)c(=O)n(C[C@H](N)c2ccccc2)c(=O)n1Cc1c(F)cccc1C(F)(F)F
> 300 |  | Cc1c(N2CCN(Cc3ccc(C(F)(F)F)nc3)CC2)c(=O)n(C[C@H](N)c2ccccc2)c(=O)n1Cc1c(F)cccc1C(F)(F)F
885 | 0.6 | Cc1c(N2CCN(Cc3cccc4nonc34)CC2)c(=O)n(C[C@H](N)c2ccccc2)c(=O)n1Cc1c(F)cccc1C(F)(F)F
> 300 |  | Cc1c(N2CCN(Cc3nnc(C(F)(F)F)o3)CC2)c(=O)n(C[C@H](N)c2ccccc2)c(=O)n1Cc1c(F)cccc1C(F)(F)F
> 300 |  | Cc1c(N2CCN(Cc3cccc4occc34)CC2)c(=O)n(C[C@H](N)c2ccccc2)c(=O)n1Cc1c(F)cccc1C(F)(F)F
 | > 100 | Cc1c(N2CCN(CC(=O)c3ccccc3Cl)CC2)c(=O)n(C[C@H](N)c2ccccc2)c(=O)n1Cc1c(F)cccc1F
 | 12 | Cc1c(N2CCN(Cc3ccccc3)CC2)c(=O)n(C[C@H](N)c2ccccc2)c(=O)n1Cc1c(F)cccc1F
